# Data reported in publication PMC6684654 (Nature Communications, 2019).
# Where “and” joins values, the source holds several entries; their conditions need not be identical. Identical values can stand only once. Like-named read-outs stand apart in the source and are kept apart here.
# Key:
# [1] = system: NDM-1 in E. coli XJ141026 culture supernatant; assay: NDM-1 release to culture supernatant (ELISA); assay type: cell-based; details: 0.8, 1.6, 3.2 μM; 6 or 12 h
# Procedure: (§1) NDM-1 level in the filtered supernatant was measured using a specific ELISA kit (Shanghai Enzyme-linked Biotechnology Co., Ltd., China) and western blot analysis. Imipenem hydrolysis in the filtered supernatant at 6 h was monitored using a Biotek powerwave HT microplate spectrophotometer at 30 °C by determining the changes in absorbance at 300 nm, with a final substrate concentration of 100 μM.
# [2] = system: NDM-1 in E. coli XJ141026 cell precipitates; assay: Imipenem hydrolysis by cell precipitates; assay type: biochemical; details: 100 μM imipenem (50 μL of 200 μM), 30 °C; treated 6 h
# Procedure: The cell pellet was washed and resuspended in 20 mM Tris-HCl (pH = 7.4) to evaluate imipenem hydrolysis in bacterial cell precipitates. The concentrations were equalized by adjusting the absorbance values to OD600 = 0.3 in the same buffer. After 50 μL of the diluted bacterial cell suspension was transferred to a 96-well plate, 50 μL of 200 μM imipenem was added to measure the hydrolytic activity of NDM-1 and 50 μL of 20 mM Tris-HCl (pH = 7.4) was added as blank. The assays were monitored at 300 nm by using a Biotek powerwave HT microplate spectrophotometer at 30 °C. Data were corrected by subtracting the absorbance values obtained from the blanks.
# [3] = system: NDM-1 in E. coli XJ141026; assay: NDM-1 levels in supernatants and cell precipitates (western blot); assay type: cell-based; details: 0.8, 1.6, 3.2 μM; 6 h
# Procedure: as §1
# Soluble total protein concentration was determined and normalized with the Pierce BCA Protein Assay Kit (Thermo Fisher Scientific, Waltham, MA, USA). NDM-1 levels in the cells were measured by SDS-PAGE followed by western blot analysis. The primary antibody against NDM-1 was obtained from Detai Bio-Tech Co., Ltd. by immunizing New Zealand white rabbits with purified NDM-1 protein and further detected by horseradish peroxidase-conjugated anti-rabbit secondary antibody (Santa Cruz Biotechnology Inc., USA). Anti-GroEL antibody (Abcam, ab82592) was used to verify protein loading transferred to the membranes. To clearly normalize the levels of NDM-1, we investigated the two proteins on the same membrane. […] Protein band intensities were quantified from polyvinylidene difluoride membranes with ImageJ software.
# [4] = system: NDM-1 in E. coli XJ141026 supernatant; assay: Imipenem hydrolysis by culture supernatant; assay type: biochemical
# Procedure: as §1
# [5] = system: NDM-1 K. pneumoniae XJ155020; assay: MIC, broth microdilution; assay type: cell-based; details: 16 h
# Source text: (§2) MIC values were identified through microdilution in sterilized 96-well polypropylene microtiter plates according to the broth microdilution guideline of the Clinical and Laboratory Standards Institute[30]. The test medium was Mueller–Hinton broth (MHB), and the strain concentrations were adjusted to 5 × 10^5 CFU/mL.
# [6] = system: NDM-1 K. pneumoniae XJ155019; assay: MIC, broth microdilution; assay type: cell-based; details: 16 h
# Source text: as §2
# NDM-1 E. coli XJ141047 [7] = assay: MIC, broth microdilution; assay type: cell-based; details: MHB, 5 × 10^5 CFU/mL, 16 h, 37 °C
# Source text: as §2
# NDM-1 E. coli XJ141015 [8] = assay: MIC, broth microdilution; assay type: cell-based; details: MHB, 5 × 10^5 CFU/mL, 16 h, 37 °C
# Source text: as §2
# NDM-1 E. coli XJ141026 [9] = assay: MIC, broth microdilution; assay type: cell-based; details: MHB, 5 × 10^5 CFU/mL, 16 h, 37 °C
# Source text: as §2
# apo-NDM-1 = apo-NDM-1 (Klebsiella pneumoniae, UniProt C7C422); assay type: binding; details: 50 mM HEPES pH 7.4, 0.05% Tween-20, RED-tris-NTA label, triplicate
# Procedure: Briefly, apo-NDM-1 was derived from the purified NDM-1 obtained above by the two rounds of dialysis against 100 volumes of 10 mM HEPES, 200 mM NaCl, and 20 mM EDTA at pH = 7.4 over a 12 h period under stirring. EDTA was removed from the resulting apoenzyme solution by three dialysis steps against 200 volumes of 10 mM HEPES, 1 M NaCl, pH = 7.4, Chelex 100 and finally three dialysis steps against 200 volumes of 50 mM HEPES, 200 mM NaCl, pH = 7.4, and Chelex 100. All buffer solutions used to prepare the apoenzymes were treated by stirring with Chelex 100 (Bio-Rad). Zinc content in the apoprotein samples was checked using ICP-MS, and apo-NDM-1 contains less than 0.2 molar equivalents of zinc ion.
# Apo-NDM-1 carrying a polyhistidine-tag (His-tag) was labeled with the RED-tris-NTA second-generation dye for 30 min at room temperature in the dark according to the manufacturer’s instructions (Monolith His-tag Labeling Kit RED-tris-NTA 2nd generation, Nanotemper Technologies GmbH). […] Then, 100 nM labeled NDM-1 protein was added to the serial dilution of the compound in a 1:1 volume ratio. After incubation for 30 min at room temperature, the samples were examined with Monolith NT.115 in Premium Capillaries (MO-K025) at medium MST power and 5% LED/excitation power. Kd values were determined using the Monolith Affinity Analysis Kd fit from triplicate experiments.
# NDM-1 [10] = target: T1, NDM-1 (Klebsiella pneumoniae, UniProt C7C422); details: cited from earlier work
# Source text: NDM-1 inhibitors, which antagonize multiple subtypes of metallo-β-lactamases and protect β-lactam antibiotics from being hydrolyzed, have been widely studied for synergistic application with β-lactam antibiotics to restore their bactericidal effects[15],[25],[26]. The most common mechanism of metallo-β-lactamase inhibitors is metal ion binding.
# NDM-1 [11] = target: T1, NDM-1; details: reported Km for imipenem; ref 15 (Yuan Q, He L, Ke H, 2012); cited from earlier work
# [12] = system: NDM-1 K. pneumoniae XJ155018; assay: MIC, broth microdilution; assay type: cell-based; details: Klebsiella pneumoniae; MHB, 5 × 10^5 CFU/mL, 16 h, 37 °C; read-out: MIC
# Source text: as §2
# K. pneumoniae ATCC13883 [13] = assay: MIC, broth microdilution; assay type: cell-based; details: Klebsiella pneumoniae, ATCC13883; MHB, 5 × 10^5 CFU/mL, 16 h, 37 °C; read-out: MIC
# Source text: as §2
# E. coli ATCC25922 [14] = assay: MIC, broth microdilution; assay type: cell-based; details: Escherichia coli, ATCC25922; MHB, 5 × 10^5 CFU/mL, 16 h, 37 °C; read-out: MIC
# Source text: as §2
# E. coli ATCC35218 = assay: MIC, broth microdilution; assay type: cell-based; details: Escherichia coli, ATCC35218; MHB, 5 × 10^5 CFU/mL, 16 h, 37 °C; read-out: MIC
# Source text: as §2
# [15] = system: NDM-1 K. pneumoniae XJ155017; assay: MIC, broth microdilution; assay type: cell-based; details: Klebsiella pneumoniae; MHB, 5 × 10^5 CFU/mL, 16 h, 37 °C; read-out: MIC
# Source text: as §2
# [16] = system: seven NDM-1-producing strains; assay: Checkerboard assay / FIC, summary; assay type: cell-based, E. coli; K. pneumoniae; details: in combination with thanatin
# Procedure: Synergy in vitro was assessed by checkerboard assays. […] Following incubation, the synergistic/additive effect was determined by calculating the FIC indices (FICI) according to the formula: FICI = (MIC of A in combination/MIC of A) + (MIC of B in combination/MIC of B). The synergy or additive was defined according to standard criteria (FICI ≤ 0.5 was defined as synergistic; 0.5 < FICI ≤ 1 was defined as additive; 1 < FICI ≤ 4 was defined as indifference; FICI > 4 was defined as antagonism)[39].
# [17] = system: NDM-1-producing E. coli XJ141026; assay: Bactericidal activity of combination treatment; assay type: cell-based; details: Imp 25 μM, Tha 0.4 μM, alone or combined, 16 h, listed as Imp
# Procedure: The kill curves were determined as mentioned above to investigate the bactericidal activity of the combination treatment. […] CFUs were counted.
# [18] = system: NDM-1 K. pneumoniae XJ155018; assay: Antibiotic susceptibility (MIC), automated identification system; assay type: cell-based; details: Supplementary Table 2
# Method in brief: (§3)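 Resistance screening used an automated identification system on clinical strains.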
# K. pneumoniae ATCC13883 [19] = assay: as above; assay type: cell-based; details: Supplementary Table 2
# Method in brief: as §3
# [20] = system: NDM-1 K. pneumoniae XJ155020; assay: as above; assay type: cell-based; details: Supplementary Table 2
# Method in brief: as §3
# E. coli ATCC25922 [21] = assay: as above; assay type: cell-based; details: Supplementary Table 1
# Method in brief: as §3
# [22] = system: NDM-1 K. pneumoniae XJ155019; assay: as above; assay type: cell-based; details: Supplementary Table 2
# Method in brief: as §3
# NDM-1 E. coli XJ141047 [23] = assay: as above; assay type: cell-based; details: Supplementary Table 1
# Method in brief: as §3
# NDM-1 E. coli XJ141015 [24] = assay: as above; assay type: cell-based; details: Supplementary Table 1
# Method in brief: as §3
# NDM-1 E. coli XJ141026 [25] = assay: as above; assay type: cell-based; details: Supplementary Table 1
# Method in brief: as §3
# [26] = system: NDM-1 K. pneumoniae XJ155017; assay: as above; assay type: cell-based; details: Supplementary Table 2
# Method in brief: as §3
# NDM-1 [27] = target: T1, NDM-1; details: NDM-1/Imipenem
# Procedure: The change in absorbance at 300 nm was monitored for 30 min in 96-well plates at 30 °C. The initial rate of reaction for each inhibitor concentration was calculated from the slope of the initial linear phase of the respective time course. The IC50 value was obtained by plotting the residual enzyme activity on imipenem (%) vs. inhibitor concentration (log10). […] The best fits were obtained with the competitive inhibition model by using the equation V0 = (Vmax × [S]) / (Km × (1 + [I] / Ki) + [S]). […] The kinetics parameters Km/Vmax/Kcat were calculated by fitting the data into the double reciprocal Lineweaver–Burk plots. GraphPad 5.0 was used for data analysis.
# [28] = Escherichia coli, read-out: MIC
# T1 sequence (C7C422 20-270, looked up, natural form): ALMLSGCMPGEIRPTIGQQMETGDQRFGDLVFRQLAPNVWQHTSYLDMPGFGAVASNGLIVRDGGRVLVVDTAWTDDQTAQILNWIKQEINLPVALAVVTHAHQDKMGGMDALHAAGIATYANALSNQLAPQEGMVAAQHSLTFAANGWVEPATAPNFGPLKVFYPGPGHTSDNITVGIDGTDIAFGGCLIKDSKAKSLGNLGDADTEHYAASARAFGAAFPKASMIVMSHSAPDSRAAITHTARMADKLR
# apo-NDM-1, sequence (C7C422 20-270, looked up, natural form): as above
compound,measurement,setting,value
Colistin,NDM-1 release into solution,[1],causing the release of NDM-1 into the solution in a time- and concentration-dependent manner
same,hydrolysis rate of precipitates,[2],consistently decreased with increasing thanatin or colistin concentration
same,NDM-1 level in cell precipitates,[3],decreased
same,hydrolysis of imipenem by supernatant,"[4]; 100 μM imipenem, 30 °C, treated 6 h",strong hydrolytic activity to imipenem
same,effect on NDM-1 activity,[4]; Discussion,almost no effect on NDM-1 activity
same,MIC,"[5]; MHB, 5 × 10^5 CFU/mL, 37 °C",6.8 µM
same,MIC,"[6]; MHB, 5 × 10^5 CFU/mL, 37 °C",6.8 µM
same,MIC,NDM-1 E. coli XJ141047 [7],1.7 µM
same,MIC,NDM-1 E. coli XJ141015 [8],1.7 µM
same,MIC,NDM-1 E. coli XJ141026 [9],0.85 µM
same,Kd,apo-NDM-1,61.7 ± 4.92 µM
N[C@H](CN[C@H](CN[C@@H](CC(=O)O)C(=O)O)C(=O)O)C(=O)O [aspergillomarasmine A],NDM-1 inhibition in words,NDM-1 [10],inhibits the NDM-1 protease activity by chelating zinc ions from the active site
C[C@@H](O)[C@H]1C(=O)N2C(C(=O)O)=C(SCCN=CN)C[C@H]12 [Imipenem],Km,NDM-1 [11],94 µM
same,MIC,[12],32 µg/mL
same,MIC,K. pneumoniae ATCC13883 [13],< 0.125 µg/mL
same,MIC,[5]; Klebsiella pneumoniae,128 µg/mL
same,MIC,E. coli ATCC25922 [14],< 0.125 µg/mL
same,MIC,[6]; Klebsiella pneumoniae,128 µg/mL
same,MIC,NDM-1 E. coli XJ141047 [7]; [28],32 µg/mL
same,MIC,NDM-1 E. coli XJ141015 [8]; [28],16 µg/mL
same,MIC,NDM-1 E. coli XJ141026 [9]; [28],16 µg/mL
same,MIC,E. coli ATCC35218,< 0.125 µg/mL
same,MIC,[15],> 256 µg/mL
same,"FIC indices, all seven strains",[16],≤ 1
same,effect of combination,[16],synergistic or additive
same,bacterial count,[17]; replicate 1,2.00E+11 CFU/mL and 11.30 Log10(CFU/mL)
same,bacterial count,[17]; replicate 2,9.50E+11 CFU/mL and 11.98 Log10(CFU/mL)
same,bacterial count,[17]; replicate 3,7.41E+10 CFU/mL and 10.87 Log10(CFU/mL)
same,bacterial count,[17]; replicate 4,5.75E+11 CFU/mL and 11.76 Log10(CFU/mL)
same,MIC,[18]; Klebsiella pneumoniae,> 8 µg/mL
same,susceptibility class (MIC),[18],R
same,MIC,"K. pneumoniae ATCC13883 [19]; Klebsiella pneumoniae, ATCC13883",≤ 1 µg/mL
same,susceptibility class (MIC),K. pneumoniae ATCC13883 [19],S
same,MIC,[20]; Klebsiella pneumoniae,> 8 µg/mL
same,susceptibility class (MIC),[20],R
same,MIC,"E. coli ATCC25922 [21]; Escherichia coli, ATCC25922",≤ 1 µg/mL
same,susceptibility class (MIC),E. coli ATCC25922 [21],S
same,MIC,[22]; Klebsiella pneumoniae,> 8 µg/mL
same,susceptibility class (MIC),[22],R
same,MIC,NDM-1 E. coli XJ141047 [23]; Escherichia coli,> 8 µg/mL
same,susceptibility class (MIC),NDM-1 E. coli XJ141047 [23],R
same,MIC,NDM-1 E. coli XJ141015 [24]; Escherichia coli,> 8 µg/mL
same,susceptibility class (MIC),NDM-1 E. coli XJ141015 [24],R
same,MIC,NDM-1 E. coli XJ141026 [25]; Escherichia coli,> 8 µg/mL
same,susceptibility class (MIC),NDM-1 E. coli XJ141026 [25],R
same,MIC,[26]; Klebsiella pneumoniae,> 8 µg/mL
same,susceptibility class (MIC),[26],R
same,Kcat,NDM-1 [27],130.40 ± 2.67 s⁻¹
same,Km,NDM-1 [27],104 µM
same,Vmax,NDM-1 [27],0.13 ± 0.03 µM/s
